Measured values taken from patent US7419780B2, “Methods and assays for screening protein targets” (The Trustees of Columbia University in the City of New York, priority 2000, dated 2008).

Key:
Type in all cases: cell-based, S. cerevisiae
Conditions in all cases: 1 uM small molecule, difference to activity without small molecule, average of two trials
[1] = target: T1, LexA eDHFR / B42 gly6rGR2 (UniProt P06536+P0ABQ4, C656G/F620S); assay: β-galactosidase activity assay, strain V375Y
T1 construct: rat Glucocorticoid Receptor (aa 524-795) with point mutations; expressed in transfected cells; host or cells: S. cerevisiae FY250
T1 sequence (P0ABQ4 1-159): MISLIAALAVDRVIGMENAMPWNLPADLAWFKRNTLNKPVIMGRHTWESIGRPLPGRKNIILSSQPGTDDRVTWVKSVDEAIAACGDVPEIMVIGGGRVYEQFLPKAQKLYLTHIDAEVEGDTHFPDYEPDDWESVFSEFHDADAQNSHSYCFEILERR
T1 sequence (P06536 524-795 F620S/C656G limits assumed): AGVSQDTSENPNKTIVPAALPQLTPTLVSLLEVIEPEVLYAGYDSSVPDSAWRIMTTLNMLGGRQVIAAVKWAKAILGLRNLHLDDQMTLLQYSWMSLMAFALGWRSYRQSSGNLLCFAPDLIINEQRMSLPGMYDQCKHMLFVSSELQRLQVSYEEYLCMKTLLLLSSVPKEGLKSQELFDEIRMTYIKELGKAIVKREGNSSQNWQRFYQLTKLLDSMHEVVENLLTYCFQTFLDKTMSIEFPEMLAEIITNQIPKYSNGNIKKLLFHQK
From the text: (§1) Table III explains the components of each strain. Each strain was constructed from the parent yeast strain FY250 and also contains the pMW106 plasmid, which has the LacZ reporter gene that is turned on only in when the LexA DNA binding domain and the B42 activation are brought in tot he vicinity of each other. We use several different strains because we use DHFR from two different species, mDHFR is from murine, while eDHFR is from E. coli. We are asl oable to switch the small moleculebinding domains. For example, the strain containing LexA-eDHFR with B42-rGH2 is a different strain and behaves differently from the strain containing LexA-rGR2 with B42-eDHFR. We also put in short 6 amino acid linkers between the two domains of our protein chimeras and thus these are different strain as well.
(§2) The results in Table IV are averages of two separate trials. Each strain was examined with small molecules and without small molecules. The absolute activity is given as the β-galactisidase activity […]. The average β-galactosidse activity for a strain without small molecule (i.e. the negative control) was about 100 β-galactosidase units.

[2] = target: T2, LexA eDHFR / B42 (GSG)rGR2 (UniProt P06536+P0ABQ4, C656G/F620S); assay: β-galactosidase activity assay, strain V494Y
T2 construct: rat Glucocorticoid Receptor (aa 524-795) with point mutations; expressed in transfected cells; host or cells: S. cerevisiae FY250
T2 sequence (P0ABQ4 1-159): T1 sequence (P0ABQ4 1-159)
T2 sequence (P06536 524-795 F620S/C656G limits assumed): T1 sequence (P06536 524-795 F620S/C656G limits assumed)
From the text: as §1, §2

[3] = target: T3, LexA rGR2 / B42 (GSG)2eDHFR (UniProt P06536+P0ABQ4, C656G/F620S); assay: β-galactosidase activity assay, strain V509Y
T3 construct: expressed in transfected cells; host or cells: S. cerevisiae FY250 with pMW106 lacZ reporter
T3 sequence (P06536 524-795 F620S/C656G limits assumed): T1 sequence (P06536 524-795 F620S/C656G limits assumed)
T3 sequence (P0ABQ4 1-159): T1 sequence (P0ABQ4 1-159)
From the text: as §1, §2

[4] = target: T4, LexA (GSG)2rGR2 / B42 mDHFR (UniProt P00375+P06536, C656G/F620S); assay: β-galactosidase activity assay, strain V508Y
T4 construct: expressed in transfected cells; host or cells: S. cerevisiae FY250 with pMW106 lacZ reporter
T4 sequence (P06536 524-795 F620S/C656G limits assumed): T1 sequence (P06536 524-795 F620S/C656G limits assumed)
T4 sequence (P00375 1-187): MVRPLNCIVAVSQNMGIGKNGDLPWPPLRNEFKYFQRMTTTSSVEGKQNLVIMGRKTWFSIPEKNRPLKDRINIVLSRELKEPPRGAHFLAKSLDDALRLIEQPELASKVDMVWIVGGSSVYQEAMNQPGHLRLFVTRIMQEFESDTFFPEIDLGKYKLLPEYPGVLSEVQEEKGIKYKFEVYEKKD
From the text: as §1, §2

[5] = target: T5, LexA (GSG)2rGR2 / B42 eDHFR (UniProt P06536+P0ABQ4, C656G/F620S); assay: β-galactosidase activity assay, strain V506Y
T5 construct: expressed in transfected cells; host or cells: S. cerevisiae FY250 with pMW106 lacZ reporter
T5 sequence (P06536 524-795 F620S/C656G limits assumed): T1 sequence (P06536 524-795 F620S/C656G limits assumed)
T5 sequence (P0ABQ4 1-159): T1 sequence (P0ABQ4 1-159)
From the text: as §1, §2

[6] = target: T6, LexA (GSG)2mDHFR / B42 (GSG)rGR2 (UniProt P00375+P06536, C656G/F620S); assay: β-galactosidase activity assay, strain V504Y
T6 construct: rat Glucocorticoid Receptor (aa 524-795) with point mutations; expressed in transfected cells; host or cells: S. cerevisiae FY250
T6 sequence (P00375 1-187): T4 sequence (P00375 1-187)
T6 sequence (P06536 524-795 F620S/C656G limits assumed): T1 sequence (P06536 524-795 F620S/C656G limits assumed)
From the text: as §1, §2

[7] = target: T7, LexA (GSG)2eDHFR / B42 gly6rGR2 (UniProt P06536+P0ABQ4, C656G/F620S); assay: β-galactosidase activity assay, strain V499Y
T7 construct: rat Glucocorticoid Receptor (aa 524-795) with point mutations; expressed in transfected cells; host or cells: S. cerevisiae FY250
T7 sequence (P0ABQ4 1-159): T1 sequence (P0ABQ4 1-159)
T7 sequence (P06536 524-795 F620S/C656G limits assumed): T1 sequence (P06536 524-795 F620S/C656G limits assumed)
From the text: as §1, §2

[8] = target: T8, LexA mDHFR / B42 gly6rGR2 (UniProt P00375+P06536, C656G/F620S); assay: β-galactosidase activity assay, strain V496Y
T8 construct: rat Glucocorticoid Receptor (aa 524-795) with point mutations; expressed in transfected cells; host or cells: S. cerevisiae FY250
T8 sequence (P00375 1-187): T4 sequence (P00375 1-187)
T8 sequence (P06536 524-795 F620S/C656G limits assumed): T1 sequence (P06536 524-795 F620S/C656G limits assumed)
From the text: as §1, §2

[9] = target: T9, LexA (GSG)2rGR2 / B42 (GSG)2mDHFR (UniProt P00375+P06536, C656G/F620S); assay: β-galactosidase activity assay, strain V512Y
T9 construct: rat Glucocorticoid Receptor (aa 524-795) with point mutations; expressed in transfected cells; host or cells: S. cerevisiae FY250
T9 sequence (P06536 524-795 F620S/C656G limits assumed): T1 sequence (P06536 524-795 F620S/C656G limits assumed)
T9 sequence (P00375 1-187): T4 sequence (P00375 1-187)
From the text: as §1, §2

LexA rGR2 / B42 mDHFR = target: T10, LexA rGR2 / B42 mDHFR (UniProt P00375+P06536, C656G/F620S); assay: β-galactosidase activity assay, strain V507Y
T10 construct: rat Glucocorticoid Receptor (aa 524-795) with point mutations; expressed in transfected cells; host or cells: S. cerevisiae FY250
T10 sequence (P06536 524-795 F620S/C656G limits assumed): T1 sequence (P06536 524-795 F620S/C656G limits assumed)
T10 sequence (P00375 1-187): T4 sequence (P00375 1-187)
From the text: as §1, §2

For `C[C@@H]1C[C@H]2C3CCC4=CC(=O)C=C[C@]4(C)[C@@]3(F)[C@@H](O)C[C@]2(C)[C@@]1(O)C(=O)NCCSCCCCCCCCCCSCC[C@H](NC(=O)c1ccc(N(C)Cc2cnc3nc(N)nc(N)c3n2)cc1)C(=O)O` (stereo partly shown) [D10M], the B-gal activity [1] was 9993 β-galactosidase units, the B-gal activity [2] was 9398 β-galactosidase units and the B-gal activity [3] was 2028 β-galactosidase units. For the same compound, the B-gal activity [4] was 5 β-galactosidase units, the B-gal activity [5] was 2561 β-galactosidase units and the B-gal activity [6] was 556 β-galactosidase units. The B-gal activity [7] was 4013 β-galactosidase units, the B-gal activity [8] was 740 β-galactosidase units and the B-gal activity [9] was 6 β-galactosidase units. For the same compound, the B-gal activity (LexA rGR2 / B42 mDHFR) was −14 β-galactosidase units.
